We go through 3 molecules from patent US9637724B2, “Selective binding of biological targets to solid phase ureides” (AGENCY FOR SCIENCE, TECHNOLOGY AND RESEARCH, priority 2012, dated 2017).

Molecules are shown by their SMILES.

Series [1] has as its system endotoxin. The experiment in a line: Comparison of allantoin and uric acid for removal of endotoxin from human IgG solution. Conditions: 1, 2 and 4% (w/v), 13,000 EU/ml, 6.7 mg/mL human IgG, 15 minutes. The protocol:
Endotoxin was added to a 6.7 mg/mL solution of human IgG in 5 mM Hepes, 100 mM NaCl, pH 7.0 to a final concentration of 13,000 EU/ml. 1, 2 and 4% (w/v) of either allantoin or uric acid was added to aliquots of this mixture and allowed to mix for 15 minutes at room temperature. As a control, equal amounts of potato starch were added to a separate series. Finally, the reaction mixtures were clarified by centrifugation. Protein and endotoxin concentrations were measured to calculate antibody recovery and endotoxin removal. There was no reduction in endotoxin with the addition of starch. Uric acid produced a 4-fold reduction at all concentrations. Allantoin reduced endotoxin from 5-10-fold across the experiments (low to high). Antibody recovery was greater than 90% throughout. Besides the poorer performance of uric acid, the fact that results were unchanged as a function of the amount of uric acid are puzzling, and highlight allantoin as being a preferable ureide to begin with.

The test system of series [2] is endotoxin. In words: Endotoxin removal during purification of a DNA plasmid from E. coli lysate. Conditions: 10% allantoin, 15 minutes. How it is done: Powdered allantoin was added to a final concentration of 10% in a filtered E. coli lysate containing a DNA plasmid. The mixture was stirred for 15 minutes then the solid allantoin was removed by microfiltration. 96.7% of the endotoxin was removed with the allantoin. 80% of the DNA plasmid was recovered in the filtrate. […] From the results given in the previous Examples, it will be apparent to the person of ordinary skill, that in the case of plasmids produced in mammalian cells, allantoin treatment will offer the additional benefit of virus removal.

The test system of series [3] is murine leukemia virus. The experiment in a line: Co-precipitation of murine leukemia virus, infectivity testing of supernatant. Conditions: 10% allantoin, physiological conditions, 10^10 particles per mL. An excerpt: A viral culture containing 10^10 particles per mL of murine leukemia virus was coprecipitated under physiological conditions by addition of allantoin in an amount of 10%. Infectivity testing of the supernatant documented removal of 99.9% of the virus.

The subject of the next series is minute virus of mice. The experiment in a line: Co-precipitation of minute virus of mice, infectivity testing of supernatant. As to conditions: 10% allantoin, physiological conditions, 10^10 particles per mL. An excerpt:
A viral culture containing 10^10 particles per mL of minute virus of mice was coprecipitated under physiological conditions by addition of allantoin in an amount of 10%. Infectivity testing of the supernatant documented removal of 99.9% of the virus.

Series [4] deals with endotoxin. In words: Endotoxin reduction from an ovalbumin solution. As to conditions: start about 50 EU/mL. How it is done: A sample of ovalbumin in 50 mM phosphate, 100 mM NaCl, pH 7.2, contaminated with about 50 EU/mL of endotoxin, was saturated with 3% allantoin, incubated for 15 minutes, following which the precipitate was removed by membrane filtration. Endotoxin content of the supernatant was reduced by more than 95%, to less than 2 EU per mL. The experiment was repeated with 10% allantoin.

Series [5] deals with murine leukemia virus. In words: Enhancement of virus inactivation at low pH, virus infectivity. As to conditions: pH 4 plus 10% allantoin. How it is done: A cell culture supernatant containing about 10^10 particles of murine leukemia virus per mL was split into 10 aliquots. Half of the aliquots were treated by reduction of pH to 4 for the purpose of inactivating the virus. The other half was treated by the same reduction or pH plus the addition of 10% allantoin. Aliquots representing treatment at 1, 5, 10, 15, and 60 minutes were evaluated for virus infectivity. At 1 minute, inactivation absent allantoin was 1.2 logs versus 2.4 logs with allantoin. At 5 minutes, inactivation absent allantoin was 3.2 logs versus 4.5 logs with allantoin. At 10 minutes, inactivation absent allantoin was 4.3 logs versus 5.4 logs with allantoin. At 15 minutes, inactivation absent allantoin was 5.1 logs versus 5.6 logs with allantoin. At 60 minutes, inactivation absent allantoin was 5.4 logs versus 5.6 logs with allantoin. Since the sensitivity of the infectivity assay is about 5.5 logs, it is likely that the allantoin inclusion increases the level of inactivation at all time points, in addition to accelerating inactivation. It will be apparent to the person of skill in the art that combination of allantoin with other virus inactivation methods will likely have a similar enhancing effect.

A short description of series [6]: Cell culture harvest treated with allantoin and ethacridine, then iminodiacetic acid / TREN / butyl particle assembly. Conditions: 1% allantoin, 0.025% ethacridine. The protocol: 1 L of cell culture harvest was treated by addition of 1% allantoin and 0.025% ethacridine and incubated stirring for 15 minutes, after which the cells and other particulates were removed by centrifugation. The supernatant was passed through an assembly containing equal proportions of styrene divinylbenzene particles substituted with iminodiacetic acid, agarose particles substituted with TREN, and acrylate particles substituted with butyl residues, with a combined volume of 50 mL, dimensions of 2.6×10 cm, and a flow rate of 25 mL/min. Initial aggregate content of greater than 12% was reduced to less than 0.1%. Excess ethacridine was removed. Host protein contamination was reduced 60%. DNA, as measured by qPCR was reduced by 6 logs. Antibody recovery was 99%.

Series [7] concerns endotoxin. The experiment in a line: Antibody recovery and endotoxin reduction from an IgG-endotoxin mixture. The protocol: Endotoxin was added to 1 mg/mL human IgG in 5 mM HEPES 100 mM NaCl pH 7.0 to 22,000 EU/ml. 2% (w/v) allantoin were added to aliquots of this mixture and allowed to mix for 15 minutes at room temperature. The suspension was clarified by centrifugation. Protein and endotoxin concentrations were measured to calculate antibody recovery and endotoxin removal. 2% (w/v) allantoin reduced endotoxin twofold. Antibody recovery was unaffected by the amount of allantoin. In a subsequent series of experiments, the amount of allantoin was increased in increments, up to 10%. Antibody recovery diminished gradually to about 93% at 10% allantoin, while endotoxin removal efficiency increased to about 99%. These experiments illustrate that the use of excessive amounts of allantoin can result in a loss of some proteins. In such cases, the person of skill in the art can make an informed decision as to the most productive balance of endotoxin removal versus protein recovery, and adjust the availability of the solid phase ureide accordingly. Additional experiments with proteins ranging in size from about 12 kDa to 1 MDa indicated a definite trend whereby the loss of protein increases with increasing protein size.

The test system of series [8] is purified DNA from salmon sperm. The experiment in a line: Treatment of purified DNA with allantoin. Conditions: antibody-containing protein preparations, previous examples. How it is done:
A 1 mg/mL preparation of purified DNA from salmon sperm was treated with 5% allantoin. More than 95% of the DNA remained soluble in the supernatant. This highlights the utility of separating virus or endotoxin contaminants from DNA preparations, such as plasmid preparations, which is otherwise extremely difficult because all three bind strongly to electropositive surfaces such as anion exchangers. […] The apparent discrepancy appears to be resolved by allantoin having little or no inherent affinity for DNA, but a very high affinity for DNA associated with other molecule, especially including DNA-compaction proteins or other compound associations of DNA with chromosomal substructures particularly including nucleosomes and their prokaryotic analogues. This further highlights the point that applications to purification of polynucleotides will likely benefit in particular from being conducted at high salt concentrations and/or the presence of organic modulators that discourage nonspecific formation of polynucleotide complexes with contaminants.

Series [9] is described as follows: Allantoin plus ethacridine treatment of IgG cell culture harvest, then TREN / T-butyl column. As to conditions: 1% allantoin with 0.01% ethacridine. The protocol: Cell-containing mammalian cell culture harvest containing a monoclonal IgG was treated by allantoin affinity with 1% allantoin in combination with 0.01% ethacridine. The sample, at a pH of about 7.2 and a conductivity of about 13.5 mS, these conditions corresponding with so-called physiological conditions, was passed over a column packed chromatography media including equal amounts of the metal affinity ligand TREN (BioWorks TREN hi-sub) and a hydrophobic ligands (Macroprep T-butyl). Antibody recovery following the previous steps was 99%. DNA was reduced by 3.5 logs, and virus was reduced by 4-5 logs. In addition, the treated sample was sparking clear, with a turbidity of about 2.0 NTU, indicating near-total removal of particulates.
The form or example 15 was followed except increasing the amount of allantoin over the course of a series of experiments, including 2%, 4%, and 8%. Antibody recovery decreased in a roughly linear fashion in inverse proportion to the amount of allantoin. Whereas recovery at 1% (example 15) was 99%, recovery at 8% was about 87%.
IgG processed as described in examples 15 and 16 was analyzed by size exclusion chromatography. […] Where aggregate content following example 15 was about 5%, it was reduced to about 1.3% at 8% allantoin. Aggregate content of membrane clarified cell harvest lacking allantoin was about 19%. […]

A further series deals with Bacteriophage M13. In words: Co-precipitation of bacteriophage M13 from phage cell culture supernatant with allantoin. The protocol:
Phage cell culture supernatant was co-precipitated by addition of allantoin at a weight to volume ratio of 7%. pH was about 7.0. Conductivity was 20 mS. The virus was recovered by dissolving the allantoin in 50 mM Hepes, 150 mM NaCl, pH 7.0. Phage recovery was about 70%. Greater than 99% of proteins and small molecule contaminants were eliminated with the supernatant.
Example 1 was repeated at pH values of 5.0, 6.0, and 8.0% allantoin.
Example 1 was repeated at NaCl concentrations corresponding to conductivity values of 40, 60, 80, and 100 mS/cm. These salt concentrations correspond with about 400, 600, 800, and 1000 mM NaCl. […] Optimal co-precipitation occurred at 400 mM NaCl. This was interpreted to reflect suppression of mutual electrostatic repulsion among viral particles with the result of supporting higher packing density of the particles on the ureide surface.
Example 1 was repeated with 3%, 5%, and 10% allantoin. Co-precipitation efficiency, as judged by removal from supernatant, was directly correlated with allantoin concentration. Recovery increased from about 31% to 57% to 91% respectively.
Phage cell culture supernatant was precipitated with 7% allantoin at 400 mM NaCl, pH 6.0. The majority of proteins and small molecule contaminants were eliminated with the supernatant. Recovery was estimated to be in excess of 90%. […]

For series [10] the following is noted: cited from earlier work.
For a further series, the system named is Attenuated Dengue virus. In words: Co-precipitation of attenuated Dengue virus with allantoin. As to conditions: 7% allantoin, 600 mM NaCl, pH 6.0. The protocol:
Attenuated Dengue virus was combined with 7% allantoin at 600 mM NaCl, pH 6.0. The supernatant was removed. The virus was recovered by dissolving the allantoin in 50 mM Hepes, pH 7.0. Recovery was estimated by immunoassay to be 70-80%.

As for `NC(=O)NC1NC(=O)NC1=O` (stereo not drawn) [allantoin], the reduction in endotoxin in the series on endotoxin [1] is recorded as 5-10 fold. Also, the “endotoxin removed with the allantoin” value in the series on endotoxin [2] was found to be 96.7%. The “removal of the virus (infectivity testing of supernatant)” value in the series with murine leukemia virus [3] and in the series with minute virus of mice was 99.9% throughout. For the same molecule, the “Endotoxin content of the supernatant reduced by” value in the series with endotoxin [4] (3% allantoin, 15 minutes) was “more than 95%”. Further, the “Endotoxin reduced by” value in the series on endotoxin [4] (10% allantoin) is listed as “more than 99.5%”. Moreover, the virus inactivation in the series with murine leukemia virus [5] (1 minute) came out at 2.4 logs; in the series with murine leukemia virus [5] (5 minutes) it was 4.5 logs; in the series on murine leukemia virus [5] (10 minutes), 5.4 logs; in the series with murine leukemia virus [5] (15 minutes), 5.6 logs; with murine leukemia virus [5] (60 minutes), 5.6 logs. Also, in series [6], the “DNA as measured by qPCR reduced by” value turned out to be 6 logs. Also, the “Host protein contamination reduced” value in series [6] was 60%. For the same molecule, in the series on endotoxin [7] (2% (w/v) allantoin, 22,000 EU/ml, 1 mg/mL human IgG, 15 minutes), the endotoxin reduction entry is given as “twofold”. The endotoxin removal efficiency result with endotoxin [7] (10% allantoin) is “about 99%”. The “DNA levels reduced by” value in [8] lay within 98 to 99%. The “DNA reduced by” value in series [9] came to 3.5 logs. Further, the “virus reduced by” value in [9] was 4-5 logs. In the series with Bacteriophage M13 (5% allantoin, pH about 7.0, about 15 mS), the “virus eliminated in the precipitate” value was “About 60%”. For the same molecule, the “proteins and small molecule contaminants eliminated with the supernatant” value in the series with Bacteriophage M13 (7% allantoin, pH about 7.0, 20 mS) is reported as “Greater than 99%”. Also, the saturation concentration result in series [10] (aqueous solutions) is listed as “about 36 mM”. The “Host protein contamination reduced by” value in the series with Attenuated Dengue virus was 99.3%.

Take `O=C1CNC(=O)N1` [hydantoin]: the “solubility relative to allantoin” value in series [10] (times more soluble than allantoin) is “roughly 10 times”.

Take `O=c1[nH]c(=O)c2[nH]c(=O)[nH]c2[nH]1` [uric acid]: the reduction in endotoxin in the series on endotoxin [1] is 4 fold.
